Experimental data as given in US10517803B2, “Individual's sensitivity to fluoride poisoning” (priority 2017, dated 2019).

Key:
rats [1] = assay: Median lethal dose (LD50) orally in rats; format: in vivo; conditions: extrapolated from oral rat LD50 to a 100 kg adult
rats [2] = conditions: orally in rats; cited from earlier work
people = conditions: most people; cited from earlier work

SMILES | median lethal dose (LD50), corresponding amount for a 100 kg adult (rats [1]) [g] | median lethal dose (LD50) (rats [2]) [mg/kg] | highest level of daily nutrient intake likely to pose no risk of adverse health effects (people) [mg/day]
F[Si-2](F)(F)(F)(F)F.[Na+].[Na+] [sodium fluorosilicate] | 12.5 | 125 | 
F [Fluoride] |  |  | 10
